From US20220127258A1, “AROMATIC RING OR HETEROAROMATIC RING COMPOUNDS, PREPARATION METHOD THEREFOR AND MEDICAL USE THEREOF” (The National Institutes of Pharmaceutical R&D Co., Ltd., priority 2019, published 2022)

Biological target: T1, hERG channel (Homo sapiens, UniProt Q12809)
T1 construct: host or cells: HEK293 stably expressing hERG
Experiment: Effect on hERG channel, whole-cell membrane clamp
Type: cell-based
Conditions: for hERG current inhibition ratio: n=3
Experimental: Extracellular fluid: 140 mM NaCl, 3.5 mM KCl, 1 mM MgCl2, 2 mM CaCl2, 10 mM glucose, 10 mM HEPES, 1.25 mM NaH2PO4, pH=7.4 (adjusted by NaOH).
Intracellular fluid: 20 mM KCl, 115 mM K-aspartic acid, 1 mM MgCl2, 5 mM EGTA, 10 mM HEPES, 2 mM Na2-ATP, pH=7.2 (adjusted by KOH).
The stock solution of the compound of Example 8 of the present invention (30.26 mM solution in DMSO) was successively diluted with 10 mL of extracellular fluid to obtain 0.3 μM, 1 μM, 3 μM, […], and 30 μM solutions.
The HEK293 cell line stably expressing the hERG potassium channel (supplier Creacell, catalog number A-0302) was cultured in DMEM medium containing 10% fetal bovine serum and 0.8 mg/mL G418. The culture temperature was 37° C., and the carbon dioxide concentration was 5%.
Cell passage: The old medium was removed, and the cells were washed with PBS once. 1 mL of TrypLE™ expression solution was added, and the cells were incubated at 37° C. for 0.5 minutes. When the cells detached from the bottom of the dish, 5 mL of 37° C. pre-warmed complete medium (DMEM medium containing 10% fetal bovine serum and 0.8 mg/mL G418) was added. The cell suspension was gently pipetted to separate the aggregated cells. The cell suspension was transferred to a sterile centrifuge tube, and centrifuged at 1000 rpm for 5 minutes to collect the cells. Expansion or maintenance culture, the cells were seeded in a 6 cm cell culture dish, and each cell culture dish was seeded with 2.5×10^5 cells (final volume: 5 mL). In order to maintain the electrophysiological activity of the cell, the cell density must not exceed 80%. The cells were separated by TrypLE™ expression solution, and 3×10^3 cells were placed on a cover slide and cultured in a 24-well plate (final volume: 500 μL). Membrane clamp test was carried out after 18 hours.
The voltage stimulus protocol of the whole-cell membrane clamp for recording the whole-cell hERG potassium current is as follows. When a whole-cell sealing was formed, the membrane clamp was disposed at −80 mV. The clamp voltage was depolarized from −80 mV to +30 mV for 2.5 seconds, and then quickly maintained at −50 mV for 4 seconds, which can excite the tail current of the hERG channel. −50 mV was used for leakage current detection in the test. The data was collected repeatly every 10 seconds to observe the effect of the compound on hERG tail current. The test data was collected by EPC-10 amplifier (HEKA) and stored in PatchMaster (HEKA) software.
A capillary glass tube (BF150-86-10, Sutter Instruments) was prepared into a recording electrode using a microelectrode puller (P97, Sutter Instruments). Microelectrode manipulator (MP285, Sutter Instruments) was manipulated under an inverted microscope (IX71, Olympus) to contact the recording electrode to the cell, and suction was applied under negative pressure to form a […]. After forming the […], a rapid capacitance compensation was performed, then a negative pressure was applied to break the cell membrane and create a whole-cell recording mode. A slow capacitor compensation was performed, and the membrane capacitance and series resistance were recorded without leakage compensation.
When the hERG current of the whole-cell record was stable, administration was conducted. Each concentration was tested for 5 minutes (or until the current was stable) before testing the next concentration. Multiple concentrations were tested for each test compound. The cover slide seeded with the cell was placed in a recording bath of an inverted microscope. The test compound and the compound-free extracellular fluid flowed through the recording chamber by gravity perfusion from low concentrations to high concentrations to act on the cell. Liquid exchange was performed using a vacuum pump in the record. For each cell, the current detected in the compound-free extracellular fluid was used as the control. Three cells were repeatly tested independently. All electrophysiological experiments were carried out at room temperature.

T1 sequence (Q12809 whole entry): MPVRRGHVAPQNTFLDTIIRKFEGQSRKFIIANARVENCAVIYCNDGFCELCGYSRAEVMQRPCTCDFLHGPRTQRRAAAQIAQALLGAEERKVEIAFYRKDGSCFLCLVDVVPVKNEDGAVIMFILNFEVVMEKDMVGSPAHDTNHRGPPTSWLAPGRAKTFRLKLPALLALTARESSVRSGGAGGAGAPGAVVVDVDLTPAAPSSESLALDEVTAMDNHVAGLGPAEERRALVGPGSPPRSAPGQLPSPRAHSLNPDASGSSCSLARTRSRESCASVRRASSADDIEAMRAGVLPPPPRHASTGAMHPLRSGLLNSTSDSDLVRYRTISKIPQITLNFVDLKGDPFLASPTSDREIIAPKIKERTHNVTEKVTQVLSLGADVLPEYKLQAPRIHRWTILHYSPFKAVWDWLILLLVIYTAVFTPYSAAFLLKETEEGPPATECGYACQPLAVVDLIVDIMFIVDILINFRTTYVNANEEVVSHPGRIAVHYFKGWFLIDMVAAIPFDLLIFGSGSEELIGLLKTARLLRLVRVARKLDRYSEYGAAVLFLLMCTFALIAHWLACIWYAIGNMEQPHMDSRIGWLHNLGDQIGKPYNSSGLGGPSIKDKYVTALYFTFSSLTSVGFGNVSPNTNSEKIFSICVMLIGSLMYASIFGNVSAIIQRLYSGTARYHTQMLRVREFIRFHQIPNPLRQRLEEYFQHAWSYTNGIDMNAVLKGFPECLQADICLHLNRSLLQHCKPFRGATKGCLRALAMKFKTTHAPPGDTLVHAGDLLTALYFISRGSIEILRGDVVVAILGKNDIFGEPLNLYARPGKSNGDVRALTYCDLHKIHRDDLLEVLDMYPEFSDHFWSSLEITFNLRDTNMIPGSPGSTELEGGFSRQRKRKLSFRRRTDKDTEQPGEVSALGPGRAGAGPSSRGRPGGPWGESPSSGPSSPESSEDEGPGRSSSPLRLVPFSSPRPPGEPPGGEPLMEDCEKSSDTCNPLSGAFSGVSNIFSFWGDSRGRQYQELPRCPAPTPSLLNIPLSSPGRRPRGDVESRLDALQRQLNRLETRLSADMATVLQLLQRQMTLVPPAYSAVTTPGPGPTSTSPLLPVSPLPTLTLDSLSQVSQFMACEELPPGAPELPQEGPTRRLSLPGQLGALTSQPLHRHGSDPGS

O=C(O)c1ccc(-c2nnc(N3[C@@H]4CC[C@H]3C[C@@H](OCc3c(-c5c(Cl)cccc5Cl)noc3C3CC3)C4)o2)cc1 [Example 8, 4-(5-((1R,3r,5S)-3-((5-cyclopropyl-3-(2,6-dichlorophenyl)isoxazol-4-yl)methoxy)-8-azabicyclo[3.2.1]octan-8-yl)-1,3,4-oxadiazol-2-yl)benzoic acid]
hERG current inhibition ratio (0.3 μM, HEK293 cell line stably expressing hERG): −2.37 ± 0.62%
hERG current inhibition ratio (1 μM, HEK293 cell line stably expressing hERG): −3.09 ± 0.30%
hERG current inhibition ratio (3 μM, HEK293 cell line stably expressing hERG): 0.48 ± 1.78%
hERG current inhibition ratio (10 μM, HEK293 cell line stably expressing hERG): 12.65 ± 2.25%
hERG current inhibition ratio (30 μM, HEK293 cell line stably expressing hERG): 31.67 ± 1.86%
IC50 (HEK293 cell line stably expressing hERG, whole-cell membrane clamp, read-out: hERG semi-inhibiting concentration (IC50)): > 30 µM
inhibitory effect on hERG channel (in words) (conclusion of Test Example 3): no inhibitory effect on hERG channel
